Measurements reported in ChEMBL document CHEMBL1201861, “Genomics of Drug Sensitity in Cancer screening data, Wellcome Trust Sanger Institute”.

Legend:
Experiment in all cases: cells
[1] = test system: 8-MG-BA; type: functional, cell-based, Homo sapiens; details: Homo sapiens, 8-MG-BA;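 further: growth inhibition of 8-MG-BA cells, read out with a cell viability assay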
Description: SANGER: Inhibition of human 8-MG-BA cell growth in a cell viability assay.

[2] = test system: LAMA-84; type: functional, cell-based, Homo sapiens; details: Homo sapiens, LAMA-84;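 further: growth inhibition of LAMA-84 cells, read out with a cell viability assay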
Description: SANGER: Inhibition of human LAMA-84 cell growth in a cell viability assay.

[3] = test system: SNU-C2B; type: functional, cell-based, Homo sapiens; details: Homo sapiens, SNU-C2B;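 further: cell viability readout used to measure compound-driven suppression of SNU-C2B cell proliferation, IC50 marking half-maximal growth inhibition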
Description: SANGER: Inhibition of human SNU-C2B cell growth in a cell viability assay.

[4] = test system: SK-MEL-2; type: functional, cell-based, Homo sapiens; details: Homo sapiens, SK-MEL-2;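 further: growth inhibition of human SK-MEL-2 cells measured with a cell viability assay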
Description: SANGER: Inhibition of human SK-MEL-2 cell growth in a cell viability assay.

[5] = test system: CW-2; type: functional, cell-based, Homo sapiens; details: Homo sapiens, CW-2;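 further: growth inhibition of CW-2 cells, read out by a cell viability assay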
Description: SANGER: Inhibition of human CW-2 cell growth in a cell viability assay.

[6] = test system: SW982; type: functional, cell-based, Homo sapiens; details: Homo sapiens, SW982;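 further: growth inhibition of SW982 cells, read out with a cell viability assay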
Description: SANGER: Inhibition of human SW982 cell growth in a cell viability assay.

[7] = test system: OCUB-M; type: functional, cell-based, Homo sapiens; details: Homo sapiens, OCUB-M;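 further: growth inhibition of the cancer cell line, read out through a cell viability assay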
Description: SANGER: Inhibition of human OCUB-M cell growth in a cell viability assay.

[8] = test system: CGTH-W-1; type: functional, cell-based, Homo sapiens; details: Homo sapiens, CGTH-W-1;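 further: growth inhibition of human CGTH-W-1 cells measured by cell viability assay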
Description: SANGER: Inhibition of human CGTH-W-1 cell growth in a cell viability assay.

[9] = test system: KMOE-2; type: functional, cell-based, Homo sapiens; details: Homo sapiens, KMOE-2;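 further: growth inhibition of human KMOE-2 cells, read out with a cell viability assay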
Description: SANGER: Inhibition of human KMOE-2 cell growth in a cell viability assay.

[10] = test system: P30-OHK; type: functional, cell-based, Homo sapiens; details: Homo sapiens, P30-OHK;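 further: growth inhibition of the P30-OHK cell line, read out with a cell viability assay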
Description: SANGER: Inhibition of human P30-OHK cell growth in a cell viability assay.

[11] = test system: HL-60; type: functional, cell-based, Homo sapiens; details: Homo sapiens, HL-60;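 further: growth inhibition of human HL-60 cells, read out with a cell viability assay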
Description: SANGER: Inhibition of human HL-60 cell growth in a cell viability assay.

[12] = test system: COR-L88; type: functional, cell-based, Homo sapiens; details: Homo sapiens, COR-L88;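 further: growth inhibition of COR-L88 cells, read out with a cell viability assay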
Description: SANGER: Inhibition of human COR-L88 cell growth in a cell viability assay.

[13] = test system: KURAMOCHI; type: functional, cell-based, Homo sapiens; details: Homo sapiens, KURAMOCHI;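 further: growth inhibition of KURAMOCHI cells, read out with a cell viability assay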
Description: SANGER: Inhibition of human KURAMOCHI cell growth in a cell viability assay.

[14] = test system: LS-513; type: functional, cell-based, Homo sapiens; details: Homo sapiens, LS-513
Description: SANGER: Inhibition of human LS-513 cell growth in a cell viability assay.

[15] = test system: KU812 cell line; type: functional, cell-based, Homo sapiens; details: Homo sapiens, KU812;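 further: growth inhibition of KU812 cells, read out with a cell viability assay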
Description: SANGER: Inhibition of human KU812 cell growth in a cell viability assay.

[16] = test system: NB17; type: functional, cell-based, Homo sapiens; details: Homo sapiens, NB17;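 further: growth inhibition of NB17 cells, read out with a cell viability assay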
Description: SANGER: Inhibition of human NB17 cell growth in a cell viability assay.

[17] = test system: CTB-1; type: functional, cell-based, Homo sapiens; details: Homo sapiens, CTB-1
Description: SANGER: Inhibition of human CTB-1 cell growth in a cell viability assay.

[18] = test system: HAL-01; type: functional, cell-based, Homo sapiens; details: Homo sapiens, HAL-01;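 further: growth inhibition of human HAL-01 cells, read out with a cell viability assay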
Description: SANGER: Inhibition of human HAL-01 cell growth in a cell viability assay.

[19] = test system: HD-MY-Z; type: functional, cell-based, Homo sapiens; details: Homo sapiens, HD-MY-Z;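 further: growth inhibition of HD-MY-Z cells, read out with a cell viability assay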
Description: SANGER: Inhibition of human HD-MY-Z cell growth in a cell viability assay.

[20] = test system: QIMR-WIL; type: functional, cell-based, Homo sapiens; details: Homo sapiens, QIMR-WIL;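 further: growth inhibition of QIMR-WIL cells, read out with a cell viability assay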
Description: SANGER: Inhibition of human QIMR-WIL cell growth in a cell viability assay.

[21] = test system: SBC-1; type: functional, cell-based, Homo sapiens; details: Homo sapiens, SBC-1;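 further: cell viability assay measuring growth inhibition of the SBC-1 cell line, IC50 being the concentration that halves growth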
Description: SANGER: Inhibition of human SBC-1 cell growth in a cell viability assay.

[22] = test system: SK-UT-1; type: functional, cell-based, Homo sapiens; details: Homo sapiens, SK-UT-1;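 further: growth inhibition of SK-UT-1 cells, measured by a cell viability assay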
Description: SANGER: Inhibition of human SK-UT-1 cell growth in a cell viability assay.

[23] = test system: ONS-76; type: functional, cell-based, Homo sapiens; details: Homo sapiens, ONS-76;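 further: growth inhibition of human ONS-76 cells, read out with a cell viability assay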
Description: SANGER: Inhibition of human ONS-76 cell growth in a cell viability assay.

[24] = test system: LS-123; type: functional, cell-based, Homo sapiens; details: Homo sapiens, LS-123
Description: SANGER: Inhibition of human LS-123 cell growth in a cell viability assay.

[25] = test system: KM12; type: functional, cell-based, Homo sapiens; details: Homo sapiens, KM12;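 further: KM12 cell growth inhibition, read out with a cell viability assay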
Description: SANGER: Inhibition of human KM12 cell growth in a cell viability assay.

[26] = test system: MS-1; type: functional, cell-based, Homo sapiens; details: Homo sapiens, MS-1;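 further: growth inhibition of MS-1 cells, read out by cell viability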
Description: SANGER: Inhibition of human MS-1 cell growth in a cell viability assay.

[27] = test system: MC116; type: functional, cell-based, Homo sapiens; details: Homo sapiens, MC116;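 further: growth inhibition of MC116 cells, read out with a cell viability assay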
Description: SANGER: Inhibition of human MC116 cell growth in a cell viability assay.

[28] = test system: HH; type: functional, cell-based, Homo sapiens; details: Homo sapiens, HH
Description: SANGER: Inhibition of human HH cell growth in a cell viability assay.

[29] = test system: TGBC1TKB; type: functional, cell-based, Homo sapiens; details: Homo sapiens, TGBC1TKB;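 further: growth inhibition of TGBC1TKB cells, read out by a cell viability assay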
Description: SANGER: Inhibition of human TGBC1TKB cell growth in a cell viability assay.

[30] = test system: U-87 MG; type: functional, cell-based, Homo sapiens, U-87MG ATCC; details: Homo sapiens, U-87 MG;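 further: growth inhibition of the cells measured with a viability assay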
Description: SANGER: Inhibition of human U-87-MG cell growth in a cell viability assay.

[31] = test system: HCC 2998; type: functional, cell-based, Homo sapiens; details: Homo sapiens, HCC 2998;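 further: growth inhibition of human HCC2998 cells, measured with a cell viability read-out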
Description: SANGER: Inhibition of human HCC2998 cell growth in a cell viability assay.

[32] = test system: ES3; type: functional, cell-based, Homo sapiens; details: Homo sapiens, ES3;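 further: growth inhibition of ES3 cells, read out with a cell viability assay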
Description: SANGER: Inhibition of human ES3 cell growth in a cell viability assay.

[33] = test system: OS-RC-2; type: functional, cell-based, Homo sapiens; details: Homo sapiens, OS-RC-2;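 further: growth inhibition of human OS-RC-2 cells, measured by a cell viability assay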
Description: SANGER: Inhibition of human OS-RC-2 cell growth in a cell viability assay.

[34] = test system: COLO-668; type: functional, cell-based, Homo sapiens; details: Homo sapiens, COLO-668
Description: SANGER: Inhibition of human COLO-668 cell growth in a cell viability assay.

[35] = test system: DMS-79; type: functional, cell-based, Homo sapiens; details: Homo sapiens, DMS-79;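 further: growth inhibition measured with a cell viability assay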
Description: SANGER: Inhibition of human DMS-79 cell growth in a cell viability assay.

[36] = test system: EW-11; type: functional, cell-based, Homo sapiens; details: Homo sapiens, EW-11;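 further: growth inhibition of human EW-11 cells, measured with a cell viability assay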
Description: SANGER: Inhibition of human EW-11 cell growth in a cell viability assay.

[37] = test system: A388; type: functional, cell-based, Homo sapiens; details: Homo sapiens, A388;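 further: growth inhibition of human A388 cells, read out with a cell viability assay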
Description: SANGER: Inhibition of human A388 cell growth in a cell viability assay.

[38] = test system: GAK; type: functional, cell-based, Homo sapiens; details: Homo sapiens, GAK;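 further: cell growth inhibition read out by a cell viability assay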
Description: SANGER: Inhibition of human GAK cell growth in a cell viability assay.

[39] = test system: MFM-223; type: functional, cell-based, Homo sapiens; details: Homo sapiens, MFM-223
Description: SANGER: Inhibition of human MFM-223 cell growth in a cell viability assay.

[40] = test system: DSH1; type: functional, cell-based, Homo sapiens; details: Homo sapiens, DSH1;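 further: growth inhibition of human DSH1 cells, measured with a cell viability readout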
Description: SANGER: Inhibition of human DSH1 cell growth in a cell viability assay.

[41] = test system: NCI-H69; type: functional, cell-based, Homo sapiens; details: Homo sapiens, NCI-H69;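 further: growth inhibition of the cell line, read out with a cell viability assay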
Description: SANGER: Inhibition of human NCI-H69 cell growth in a cell viability assay.

[42] = test system: JAR; type: functional, cell-based, Homo sapiens; details: Homo sapiens, JAR;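 further: growth inhibition of human JAR cells determined with a cell viability assay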
Description: SANGER: Inhibition of human JAR cell growth in a cell viability assay.

[43] = test system: MLMA; type: functional, cell-based, Homo sapiens; details: Homo sapiens, MLMA;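 further: growth inhibition of MLMA cells (human), determined through a cell viability readout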
Description: SANGER: Inhibition of human MLMA cell growth in a cell viability assay.

[44] = test system: EW-13; type: functional, cell-based, Homo sapiens; details: Homo sapiens, EW-13;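 further: growth inhibition of EW-13 cells, read out with a cell viability assay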
Description: SANGER: Inhibition of human EW-13 cell growth in a cell viability assay.

[45] = test system: NH-12; type: functional, cell-based, Homo sapiens; details: Homo sapiens, NH-12;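 further: growth inhibition of NH-12 cells, read out with a cell viability assay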
Description: SANGER: Inhibition of human NH-12 cell growth in a cell viability assay.

[46] = test system: K562; type: functional, cell-based, Homo sapiens; details: Homo sapiens, K562
Description: SANGER: Inhibition of human K-562 cell growth in a cell viability assay.

[47] = test system: LC-2-ad; type: functional, cell-based, Homo sapiens; details: Homo sapiens, LC-2-ad;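 further: growth inhibition of human LC-2-ad cells, read out with a cell viability assay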
Description: SANGER: Inhibition of human LC-2-ad cell growth in a cell viability assay.

[48] = test system: NCI-H1092; type: functional, cell-based, Homo sapiens; details: Homo sapiens, NCI-H1092;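 further: cell growth inhibition measured with a cell viability assay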
Description: SANGER: Inhibition of human NCI-H1092 cell growth in a cell viability assay.

**Q.** Which results are given for CN(C)C(=N)NC(=N)N [METFORMIN]?
**A.** IC50 [1]: > 20 mM; IC50 [2]: > 20 mM; IC50 [3]: > 20 mM; IC50 [4]: > 20 mM; IC50 [5]: 4.12 mM; IC50 [6]: > 20 mM; IC50 [7]: 11.4 mM; IC50 [8]: > 20 mM; IC50 [9]: > 20 mM; IC50 [10]: 2.76 mM; IC50 [11]: > 20 mM; IC50 [12]: 6.38 mM; IC50 [13]: > 20 mM; IC50 [14]: > 20 mM; IC50 [15]: 1.06 mM; IC50 [16]: > 20 mM; IC50 [17]: > 20 mM; IC50 [18]: > 20 mM; IC50 [19]: > 20 mM; IC50 [20]: > 20 mM; IC50 [21]: 6.93 mM; IC50 [22]: > 20 mM; IC50 [23]: > 20 mM; IC50 [24]: 17.3 mM; IC50 [25]: > 20 mM; IC50 [26]: > 20 mM; IC50 [27]: > 20 mM; IC50 [28]: 9.63 mM; IC50 [29]: > 20 mM; IC50 [30]: > 20 mM; IC50 [31]: > 20 mM; IC50 [32]: 16.9 mM; IC50 [33]: 13 mM; IC50 [34]: > 20 mM; IC50 [35]: 5.97 mM; IC50 [36]: > 20 mM; IC50 [37]: > 20 mM; IC50 [38]: > 20 mM; IC50 [39]: > 20 mM; IC50 [40]: > 20 mM; IC50 [41]: 8.56 mM; IC50 [42]: 9.03 mM; IC50 [43]: > 20 mM

**Q.** Which results are given for C#Cc1cccc(Nc2ncnc3cc(OCCOC)c(OCCOC)cc23)c1 [ERLOTINIB]?
**A.** IC50 [1]: > 0.002 mM; IC50 [2]: > 0.002 mM; IC50 [44]: > 0.002 mM; IC50 [4]: > 0.002 mM; IC50 [5]: > 0.002 mM; IC50 [7]: > 0.002 mM; IC50 [8]: > 0.002 mM; IC50 [9]: > 0.002 mM; IC50 [10]: > 0.002 mM; IC50 [11]: > 0.002 mM; IC50 [12]: > 0.002 mM; IC50 [13]: > 0.002 mM; IC50 [14]: > 0.002 mM; IC50 [15]: > 0.002 mM; IC50 [16]: > 0.002 mM; IC50 [17]: > 0.002 mM; IC50 [18]: > 0.002 mM; IC50 [19]: > 0.002 mM; IC50 [20]: > 0.002 mM; IC50 [45]: > 0.002 mM; IC50 [46]: > 0.002 mM; IC50 [47]: > 0.002 mM; IC50 [22]: > 0.002 mM; IC50 [23]: > 0.002 mM; IC50 [24]: > 0.002 mM; IC50 [25]: > 0.002 mM; IC50 [26]: > 0.002 mM; IC50 [27]: > 0.002 mM; IC50 [28]: > 0.002 mM; IC50 [29]: > 0.002 mM; IC50 [30]: > 0.002 mM; IC50 [31]: > 0.002 mM; IC50 [32]: > 0.002 mM; IC50 [48]: > 0.002 mM; IC50 [33]: > 0.002 mM; IC50 [34]: > 0.002 mM; IC50 [35]: > 0.002 mM; IC50 [36]: > 0.002 mM; IC50 [37]: 0.00109 mM; IC50 [39]: > 0.002 mM; IC50 [40]: > 0.002 mM; IC50 [41]: > 0.002 mM; IC50 [43]: > 0.002 mM
